Assay results as given in ChEMBL document CHEMBL6071130, “A comprehensive review of small molecule drugs approved by the FDA in 2023: Advances and prospects” (Eur J Med Chem, 2024).

Legend:
[1] = Half life in mouse; type: ADME, organism-based; conditions: in vivo
in vivo = conditions: mouse, po
Description: Oral bioavailability in mouse

Description for Gamma-secretase: Inhibition of Gamma-secretase (unknown origin)

Row | Compound | IC50 (Gamma-secretase) [nM] | half-life [1] [h] | bioavailability (in vivo) [%]
1 | C[C@H](NC(=O)Cc1cc(F)cc(F)c1)C(=O)N[C@H](C(=O)OC(C)(C)C)c1ccccc1 | 20 |  | 
2 | CCO[C@H]1CCN(Cc2c(OC)cc(C)c3[nH]ccc23)[C@H](c2ccc(C(=O)O)cc2)C1 [IPTACOPAN] |  | 7 | 60
